Six test systems from the supplement of paper PMC10331698 can be followed below.

Holding throughout (assay): level (log10 ratio to DMSO vehicle control); higher = higher biomarker level / cell amount than vehicle control
Compound in assay [1]: CO[Si](C)(CCC(F)(F)C(F)(F)C(F)(F)C(F)(F)C(F)(F)C(F)(F)F)OC [Dimethoxymethyl((perfluorohexyl)ethyl)silane] (in DMSO)
Here is the method: (§1)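 BioMAP Diversity Plus panel of 12 human primary cell co-culture systems (3C, 4H, LPS, SAg, BT, BF4T, BE3C, CASM3C, HDF3CGF, KF3CT, MyoF, Mphg). Compounds were added 1 h before stimulation and left for 24 h (MyoF 48 h; BT 72 h for soluble read-outs or 6 d for IgG). Biomarkers were read by ELISA, cytotoxicity by SRB, PBMC viability and proliferation by Alamar Blue. Each well value was divided by the mean of 8 DMSO control wells on the same plate and log10 transformed; duplicate blinded samples were tested at 4 concentrations.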

Compound in assay [2]: NS(=O)(=O)C(F)(F)C(F)(F)C(F)(F)C(F)(F)C(F)(F)C(F)(F)C(F)(F)C(F)(F)F [Perfluorooctanesulfonamide] (in DMSO)
The method, then: as §1

Compound in assay [3]: OCCC(F)(F)C(F)(F)C(F)(F)C(F)(F)F [4:2 Fluorotelomer alcohol] (in DMSO)
Here is the method: as §1

Compound in assay [4]: CN(C(=O)C(F)(F)C(F)(F)C(F)(F)F)[Si](C)(C)C [N-Methyl-N-trimethylsilylheptafluorobutyramide] (in DMSO)
Here is the method:
as §1

Compound in assay [5]: OCC(F)(F)OC(F)(F)C(F)(F)OC(F)(F)C(F)(F)OC(F)(F)CO [1H,1H,11H,11H-Perfluorotetraethylene glycol] (in DMSO)
Here is the method: as §1

Compound in assay [6]: O=C(O)CCC(F)(C(F)(F)F)C(F)(F)F [4,4-bis(Trifluoromethyl)-4-fluoropropanoic acid] (in DMSO)
Here is the method:
as §1

Compound in assay [7]: O=C(O)C=C(C(F)(F)F)C(F)(F)F [3,3-Bis(trifluoromethyl)-2-propenoic acid] (in DMSO)
Here is the method: as §1

Compound in assay [8]: O=C(O)C(F)(F)C(F)(F)C(F)(F)C(F)(F)C(F)(F)C(F)(F)C(F)(F)C(F)(F)C(F)(F)C(F)(F)F [Perfluoroundecanoic acid] (in DMSO)
As to conditions: 6700 nM. The method, then: as §1

± gives the standard deviation of the averaged measurements.

3C:CCL2/MCP-1: the “level (log10)” value was -0.0005 ± 0.0021 in assay [1] (6700 nM); 0.012 ± 0.0042 in assay [1] (20000 nM); -0.0015 ± 0.0021 in assay [2] (6700 nM); 0.085 ± 0.0057 in assay [2] (20000 nM); -0.0545 ± 0.074 in assay [3] (6700 nM); -0.0225 ± 0.044 in assay [3] (20000 nM). Further, the “level (log10)” value in assay [3] (60000 nM) is 0.032 ± 0.011; in assay [4] (6700 nM), -0.009 ± 0.014; in assay [4] (20000 nM), -0.0075 ± 0.0064; in assay [4] (60000 nM), 0.0005 ± 0.016; in assay [5] (6700 nM), -0.001 ± 0.018; in assay [5] (20000 nM), -0.005 ± 0.027. Further, the “level (log10)” value was -0.015 ± 0.0057 in assay [5] (60000 nM); 0.0005 ± 0.0092 in assay [6] (6700 nM); 0.0035 ± 0.012 in assay [6] (20000 nM); 0.0015 ± 0.0021 in assay [6] (60000 nM); 0.001 ± 0.011 in assay [7] (6700 nM); -0.0065 ± 0.0064 in assay [7] (20000 nM). For the same test system, the figures for the “level (log10)” value in assay [7] (60000 nM) and in assay [8] were 0.0015 ± 0.037 and 0.009 ± 0.0042, respectively.
On to 3C:CD54/ICAM-1, for which the “level (log10)” value in assay [1] (6700 nM) is -0.008 ± 0.0085; in assay [1] (20000 nM), 0.0265 ± 0.016; in assay [2] (6700 nM) it was -0.0005 ± 0.005; in assay [2] (20000 nM), 0.002 ± 0.011; in assay [3] (6700 nM), -0.025 ± 0.018; in assay [3] (20000 nM) it was -0.018 ± 0.017. Besides, the “level (log10)” value is 0.006 ± 0.0042 in assay [3] (60000 nM); -0.0045 ± 0.022 in assay [4] (6700 nM); -0.014 ± 0.0042 in assay [4] (20000 nM); 0.015 ± 0.011 in assay [4] (60000 nM); 0.0015 ± 0.00071 in assay [5] (6700 nM); -0.009 ± 0.0071 in assay [5] (20000 nM). Moreover, the “level (log10)” value in assay [5] (60000 nM) is 0.007; in assay [6] (6700 nM), -0.01 ± 0.017; in assay [6] (20000 nM), -0.022 ± 0.024; in assay [6] (60000 nM), -0.0085 ± 0.011; in assay [7] (6700 nM), -0.002 ± 0.0071; in assay [7] (20000 nM) it was -0.018 ± 0.0071. Further, the “level (log10)” value in assay [7] (60000 nM) is -0.0095 ± 0.018; in assay [8], -0.009 ± 0.0042.
Turning to 3C:CD62E/E-Selectin, the “level (log10)” value is -0.023 ± 0.0042 in assay [1] (6700 nM); -0.0235 ± 0.005 in assay [1] (20000 nM); -0.006 ± 0.02 in assay [2] (6700 nM); 0.043 ± 0.011 in assay [2] (20000 nM); -0.019 ± 0.021 in assay [3] (6700 nM); -0.012 ± 0.0014 in assay [3] (20000 nM). Also, the “level (log10)” value in assay [3] (60000 nM) was -0.0105 ± 0.0078; in assay [4] (6700 nM), -0.0115 ± 0.015; in assay [4] (20000 nM), -0.007 ± 0.0042; in assay [4] (60000 nM), 0.0015 ± 0.037; in assay [5] (6700 nM), -0.0145 ± 0.029; in assay [5] (20000 nM) it was -0.008 ± 0.038. For the same test system, the “level (log10)” value in assay [5] (60000 nM) was -0.0375 ± 0.036; in assay [6] (6700 nM), -0.0065 ± 0.016; in assay [6] (20000 nM), -0.0165 ± 0.016; in assay [6] (60000 nM), -0.0085 ± 0.012; in assay [7] (6700 nM), -0.044 ± 0.0057; in assay [7] (20000 nM) it was -0.081. Besides, the figures for the “level (log10)” value in assay [7] (60000 nM) and in assay [8] were -0.123 ± 0.026 and -0.0135 ± 0.04, respectively.
On to 3C:CD106/VCAM-1, for which the “level (log10)” value is -0.0115 ± 0.035 in assay [1] (6700 nM); -0.009 ± 0.024 in assay [1] (20000 nM); -0.0005 ± 0.012 in assay [2] (6700 nM); 0.003 ± 0.013 in assay [2] (20000 nM); -0.0205 ± 0.016 in assay [3] (6700 nM); -0.011 ± 0.011 in assay [3] (20000 nM). In addition, the “level (log10)” value in assay [3] (60000 nM) was -0.0095 ± 0.011; in assay [4] (6700 nM), -0.0245 ± 0.0021; in assay [4] (20000 nM), -0.01 ± 0.016; in assay [4] (60000 nM), 0.0025 ± 0.012; in assay [5] (6700 nM) it was -0.01 ± 0.0057; in assay [5] (20000 nM), -0.015 ± 0.0071. Besides, the “level (log10)” value in assay [5] (60000 nM) is -0.004 ± 0.011; in assay [6] (6700 nM) it was -0.0195 ± 0.018; in assay [6] (20000 nM) it was -0.0215 ± 0.03; in assay [6] (60000 nM) it was -0.0085 ± 0.023; in assay [7] (6700 nM), -0.0575 ± 0.03; in assay [7] (20000 nM) it was -0.0805 ± 0.025. For the same test system, the “level (log10)” value in assay [7] (60000 nM) is -0.157 ± 0.017; in assay [8], -0.001 ± 0.044.
For 3C:CD141/Thrombomodulin, the “level (log10)” value in assay [1] (6700 nM) is -0.0035 ± 0.0021; in assay [1] (20000 nM) it was -0.0275 ± 0.025; in assay [2] (6700 nM) it was 0.018 ± 0.0099; in assay [2] (20000 nM), 0.107 ± 0.0014; in assay [3] (6700 nM), -0.0175 ± 0.013; in assay [3] (20000 nM) it was -0.001 ± 0.0085. The “level (log10)” value is -0.0005 ± 0.019 in assay [3] (60000 nM); -0.024 ± 0.016 in assay [4] (6700 nM); -0.022 ± 0.014 in assay [4] (20000 nM); -0.0115 ± 0.0092 in assay [4] (60000 nM); -0.0145 ± 0.039 in assay [5] (6700 nM); 0.005 ± 0.028 in assay [5] (20000 nM). The “level (log10)” value was 0.051 ± 0.021 in assay [5] (60000 nM); -0.035 ± 0.082 in assay [6] (6700 nM); -0.021 ± 0.062 in assay [6] (20000 nM); -0.0435 ± 0.069 in assay [6] (60000 nM); 0.023 ± 0.0057 in assay [7] (6700 nM); 0.0025 ± 0.00071 in assay [7] (20000 nM). For the same test system, the “level (log10)” value is 0.0215 ± 0.037 in assay [7] (60000 nM) and -0.023 ± 0.047 in assay [8].
As for 3C:CD142/Tissue Factor, the “level (log10)” value in assay [1] (6700 nM) was 0.015 ± 0.02; in assay [1] (20000 nM), 0.021 ± 0.033; in assay [2] (6700 nM), -0.05 ± 0.017; in assay [2] (20000 nM) it was -0.033 ± 0.031; in assay [3] (6700 nM), -0.016 ± 0.018; in assay [3] (20000 nM), -0.04 ± 0.045. Besides, the “level (log10)” value in assay [3] (60000 nM) was -0.0375 ± 0.00071; in assay [4] (6700 nM), 0.0195 ± 0.044; in assay [4] (20000 nM), 0.02 ± 0.013; in assay [4] (60000 nM), 0.026 ± 0.033; in assay [5] (6700 nM), -0.0315 ± 0.037; in assay [5] (20000 nM), -0.009 ± 0.0014. Further, the “level (log10)” value in assay [5] (60000 nM) was -0.013 ± 0.05; in assay [6] (6700 nM), 0.024 ± 0.0099; in assay [6] (20000 nM), 0.0115 ± 0.0078; in assay [6] (60000 nM), -0.002 ± 0.023; in assay [7] (6700 nM) it was 0.0445 ± 0.018; in assay [7] (20000 nM), -0.022 ± 0.037. The “level (log10)” value in assay [7] (60000 nM) is -0.138 ± 0.052; in assay [8] it was -0.008 ± 0.016.
